From patent US20200231638A1, “STABILIZED ANTI-MICROBIAL PEPTIDES” (priority 2015, published 2020)
In brackets after ≈: the same amount, converted by molar mass. Bridge positions count the residues as written; N and C are the ends. Square brackets hold non-standard residues; d marks the D form. Peptide text beside a SMILES is read from it. R8 = C=CCCCCCC[C@@](C)(N)C(=O)O; S5 = C=CCCC[C@](C)(N)C(=O)O; Nle = CCCC[C@H](N)C(=O)O

Assays:
[1] = system: B. cereus; type: cell-based, Bacillus cereus
How it was run: (§1)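 Broth microdilution; anion-exchange-refined MHB; overnight culture at 37° C, diluted and regrown; inoculum 5×10^5 CFU/ml final; peptides serially diluted in water; 20-24 h, 37° C; MIC = lowest concentration without visible growth.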

[2] = system: E. coli; type: cell-based, Escherichia coli
How it was run: as §1

[3] = system: S. marcescens; type: cell-based
Protocol: Antimicrobial Activity Assay:
The following microbroth dilution protocol was adapted to determine the minimum inhibitory concentration (MIC) of each peptide. First, Mueller-Hinton broth (MHB) was passed through an anion exchange column to remove polyanionic species and generate refined MHB. […] Briefly, bacterial cells was grown overnight in refined MHB at 37° C. and then diluted and allowed to grow again for several hours. Serial dilutions of peptide stocks in water (10 μl) were prepared using clear round-bottom polypropylene 96-well plates. Then 90 μl of bacteria in refined MHB was added to give a final inoculum of 5×10^5 CFU/ml. The plates were then covered with porous tape to reduce evaporation, and incubated for 20-24 hours at 37° C. The MIC is the minimum peptide concentration at which no visible growth was observed.

[4] = system: human red blood cells; type: cell-based; conditions: for % Hemolysis at 25 μg/ml: red cells of human, 1 h
How it was run: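 Hemolysis expressed as absorbance of released hemoglobin (570 nm) normalized between untreated and 1% Triton-X100 controls, with MHC taken as peptide concentration giving under 1% release. Peptide dilutions were exposed for 1 h at 37° C to a 1% (v/v) suspension of washed human red cells in PBS.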

[5] = system: P. aeruginosa; type: cell-based, Pseudomonas aeruginosa
How it was run: as §1

[6] = system: S. aureus; type: cell-based, Staphylococcus aureus
How it was run: as §1

SMILES	MIC B. cereus [1]	MIC E. coli [2]	MIC S. marcescens [3]	MIC P. aeruginosa [5]	MIC S. aureus [6]	hemolytic activity (in words) [4]	% Hemolysis at 25 μg/ml [4]
CCCC[C@H](NC(=O)[C@]1(C)CCCC=CCCC[C@](C)(NC(=O)[C@H](C)NC(=O)[C@H](CCCCN)NC(=O)CNC(=O)[C@H](Cc2ccccc2)NC(=O)[C@H](CCCCN)NC(=O)[C@H](CCCCN)NC(=O)[C@H](C)NC(=O)[C@H](CO)NC(=O)[C@H](Cc2c[nH]cn2)NC(=O)[C@H](CC(C)C)NC(=O)[C@H](Cc2ccccc2)NC(=O)[C@H](CCCCN)NC(=O)CNC(=O)[C@@H](NC(=O)CN)[C@@H](C)CC)C(=O)N[C@@H](C(C)C)C(=O)N[C@@H](Cc2c[nH]cn2)C(=O)N[C@@H](CCC(=O)O)C(=O)N1)C(=O)N[C@@H](CC(N)=O)C(=O)N[C@@H](CO)C(N)=O [Mag(i + 4)15(G18H), GIGKFLHSAKKFGKAXVHEXBNS] (H-GIGKFLHSAKKFGKA[S5]VHE[S5][Nle]NS-NH2; staple 16-20)	3.1 µg/mL	1.6 µg/mL		6.2 µg/mL	6.2 µg/mL		6.8%
CCCC[C@H](NC(=O)[C@@H](NC(=O)[C@H](CCC(=O)O)NC(=O)CNC(=O)[C@@H](NC(=O)[C@H](Cc1ccccc1)NC(=O)[C@H](C)NC(=O)[C@H](CCCCN)NC(=O)CNC(=O)[C@H](Cc1ccccc1)NC(=O)[C@H](CCCCN)NC(=O)[C@H](CCCCN)NC(=O)[C@H](C)NC(=O)[C@H](CO)NC(=O)[C@H](Cc1c[nH]cn1)NC(=O)[C@H](CC(C)C)NC(=O)[C@]1(C)CCCC=CCCC[C@](C)(N)C(=O)N[C@@H]([C@@H](C)CC)C(=O)NCC(=O)N[C@@H](CCCCN)C(=O)N1)C(C)C)[C@@H](C)CC)C(=O)N[C@@H](CC(N)=O)C(=O)N[C@@H](CO)C(N)=O [Mag(i + 4)0, XIGKXLHSAKKFGKAFVGEIBNS] (H-[S5]IGK[S5]LHSAKKFGKAFVGEI[Nle]NS-NH2; staple 1-5)	12.5 µg/mL	3.1 µg/mL		50 µg/mL	>50 µg/mL		4.8%
CCCC[C@H](NC(=O)[C@]1(C)CCCC=CCCC[C@](C)(NC(=O)[C@H](C)NC(=O)[C@H](CCCCN)NC(=O)CNC(=O)[C@H](Cc2ccccc2)NC(=O)[C@H](CCCCN)NC(=O)[C@H](CCCCN)NC(=O)[C@H](C)NC(=O)[C@H](Cc2c[nH]cn2)NC(=O)[C@H](Cc2c[nH]cn2)NC(=O)[C@H](CC(C)C)NC(=O)[C@H](Cc2ccccc2)NC(=O)[C@H](CCCCN)NC(=O)CNC(=O)[C@@H](NC(=O)CN)[C@@H](C)CC)C(=O)N[C@@H](C(C)C)C(=O)NCC(=O)N[C@@H](CCC(=O)O)C(=O)N1)C(=O)N[C@@H](CC(N)=O)C(=O)N[C@@H](CO)C(N)=O [Mag(i + 4)15(S8H), GIGKFLHHAKKFGKAXVGEXBNS] (H-GIGKFLHHAKKFGKA[S5]VGE[S5][Nle]NS-NH2; staple 16-20)	3.1 µg/mL	1.6 µg/mL		3.1 µg/mL	3.1 µg/mL		8.7%
CCCC[C@H](NC(=O)[C@]1(C)CCCC=CCCC[C@](C)(NC(=O)[C@H](C)NC(=O)[C@H](CCCCN)NC(=O)[C@@H]2CCCN2C(=O)[C@H](Cc2ccccc2)NC(=O)[C@H](CCCCN)NC(=O)[C@H](CCCCN)NC(=O)[C@H](C)NC(=O)[C@H](CO)NC(=O)[C@H](Cc2c[nH]cn2)NC(=O)[C@H](CC(C)C)NC(=O)[C@H](Cc2ccccc2)NC(=O)[C@H](CCCCN)NC(=O)CNC(=O)[C@@H](NC(=O)CN)[C@@H](C)CC)C(=O)N[C@@H](C(C)C)C(=O)NCC(=O)N[C@@H](CCC(=O)O)C(=O)N1)C(=O)N[C@@H](CC(N)=O)C(=O)N[C@@H](CO)C(N)=O [Mag(i + 4)15(G13P), GIGKFLHSAKKFPKAXVGEXBNS] (H-GIGKFLHSAKKFPKA[S5]VGE[S5][Nle]NS-NH2; staple 16-20)	25 µg/mL	3.1 µg/mL		25 µg/mL	>50 µg/mL		2.0%

Continued, in another order:

MIC B. cereus [1]	MIC E. coli [2]	MIC S. marcescens [3]	MIC P. aeruginosa [5]	MIC S. aureus [6]	SMILES	hemolytic activity (in words) [4]	% Hemolysis at 25 μg/ml [4]
3.1 µg/mL (≈ 1.25 µM)	3.1 µg/mL (≈ 1.25 µM)	>50 µg/mL			CCCC[C@H](NC(=O)[C@@H](NC(=O)[C@]1(C)CCCC=CCCCCCC[C@@](C)(NC(=O)[C@H](CCCCN)NC(=O)[C@H](CCCCN)NC(=O)[C@H](C)NC(=O)[C@H](C)NC(=O)[C@H](Cc2c[nH]cn2)NC(=O)[C@H](CC(C)C)NC(=O)[C@H](Cc2ccccc2)NC(=O)[C@H](CCCCN)NC(=O)CNC(=O)[C@@H](NC(=O)CN)[C@@H](C)CC)C(=O)N[C@@H](C)C(=O)N[C@@H](CCCCN)C(=O)N[C@@H](C)C(=O)N[C@@H](Cc2ccccc2)C(=O)N[C@@H](C(C)C)C(=O)N[C@@H](C)C(=O)N1)[C@@H](C)CC)C(=O)N[C@@H](CC(N)=O)C(=O)N[C@@H](CO)C(N)=O [MagStap 6] (H-GIGKFLHAAKK[R8]AKAFVA[S5]I[Nle]NS-NH2; staple 12-19; N-terminus assumed)		
6.2 µg/mL (≈ 2.46 µM)	12.5 µg/mL (≈ 4.95 µM)	>50 µg/mL			CCCC[C@H](NC(=O)[C@@H](NC(=O)[C@H](CCC(=O)O)NC(=O)[C@H](C)NC(=O)[C@]1(C)CCCC=CCCCCCC[C@@](C)(NC(=O)[C@H](C)NC(=O)[C@H](C)NC(=O)[C@H](Cc2c[nH]cn2)NC(=O)[C@H](CC(C)C)NC(=O)[C@H](Cc2ccccc2)NC(=O)[C@H](CCCCN)NC(=O)CNC(=O)[C@@H](NC(=O)CN)[C@@H](C)CC)C(=O)N[C@@H](CCCCN)C(=O)N[C@@H](Cc2ccccc2)C(=O)N[C@@H](C)C(=O)N[C@@H](CCCCN)C(=O)N[C@@H](C)C(=O)N[C@@H](Cc2ccccc2)C(=O)N1)[C@@H](C)CC)C(=O)N[C@@H](CC(N)=O)C(=O)N[C@@H](CO)C(N)=O [MagStap 4] (H-GIGKFLHAA[R8]KFAKAF[S5]AEI[Nle]NS-NH2; staple 10-17; N-terminus assumed)	highest hemolytic activity	
6.2 µg/mL (≈ 2.41 µM)	6.2 µg/mL (≈ 2.41 µM)	>50 µg/mL			CCCC[C@H](NC(=O)[C@]1(C)CCCC=CCCCCCC[C@@](C)(NC(=O)[C@H](Cc2ccccc2)NC(=O)[C@H](CCCCN)NC(=O)[C@H](CCCCN)NC(=O)[C@H](C)NC(=O)[C@H](C)NC(=O)[C@H](Cc2c[nH]cn2)NC(=O)[C@H](CC(C)C)NC(=O)[C@H](Cc2ccccc2)NC(=O)[C@H](CCCCN)NC(=O)CNC(=O)[C@@H](NC(=O)CN)[C@@H](C)CC)C(=O)N[C@@H](CCCCN)C(=O)N[C@@H](C)C(=O)N[C@@H](Cc2ccccc2)C(=O)N[C@@H](C(C)C)C(=O)N[C@@H](C)C(=O)N[C@@H](CCC(=O)O)C(=O)N1)C(=O)N[C@@H](CC(N)=O)C(=O)N[C@@H](CO)C(N)=O [MagStap 7] (H-GIGKFLHAAKKF[R8]KAFVAE[S5][Nle]NS-NH2; staple 13-20; N-terminus assumed)		
3.1 µg/mL	1.6 µg/mL		3.1 µg/mL	1.6 µg/mL	CCCC[C@@H]1NC(=O)[C@H]([C@@H](C)CC)NC(=O)[C@@](C)(NC(=O)CNC(=O)[C@@H](NC(=O)[C@H](Cc2ccccc2)NC(=O)[C@H](C)NC(=O)[C@H](CCCCN)NC(=O)CNC(=O)[C@H](Cc2ccccc2)NC(=O)[C@H](CCCCN)NC(=O)[C@H](CCCCN)NC(=O)[C@H](C)NC(=O)[C@H](CO)NC(=O)[C@H](Cc2c[nH]cn2)NC(=O)[C@H](CC(C)C)NC(=O)[C@H](Cc2ccccc2)NC(=O)[C@H](CCCCN)NC(=O)CNC(=O)[C@@H](NC(=O)CN)[C@@H](C)CC)C(C)C)CCCC=CCCC[C@@](C)(C(N)=O)NC(=O)[C@H](CC(N)=O)NC1=O [Mag(i + 4)18, GIGKFLHSAKKFGKAFVGXIBNX] (H-GIGKFLHSAKKFGKAFVG[S5]I[Nle]N[S5]-NH2; staple 19-23)		96.5%
6.2 µg/mL	3.1 µg/mL		25 µg/mL	6.2 µg/mL	CCCC[C@H](NC(=O)[C@@H](NC(=O)[C@H](CCC(=O)O)NC(=O)CNC(=O)[C@@H](NC(=O)[C@H](Cc1ccccc1)NC(=O)[C@H](C)NC(=O)[C@]1(C)CCCC=CCCCCCC[C@@](C)(NC(=O)[C@H](CC(C)C)NC(=O)[C@H](Cc2ccccc2)NC(=O)[C@H](CCCCN)NC(=O)CNC(=O)[C@@H](NC(=O)CN)[C@@H](C)CC)C(=O)N[C@@H](CO)C(=O)N[C@@H](C)C(=O)N[C@@H](CCCCN)C(=O)N[C@@H](CCCCN)C(=O)N[C@@H](Cc2ccccc2)C(=O)NCC(=O)N1)C(C)C)[C@@H](C)CC)C(=O)N[C@@H](CC(N)=O)C(=O)N[C@@H](CO)C(N)=O [Mag(i + 7)6] (H-GIGKFL[R8]SAKKFG[S5]AFVGEI[Nle]NS-NH2; staple 7-14 (inferred); N-terminus and C-terminus assumed)		47.1%
